These results are taken from PMC8098682 (Chemical Science, 2021).

In general, IC50 refers to the concentration needed to halve the response being measured. A lower IC50 goes with greater potency.

Structures are written as SMILES.

The test concerns the target T1, isocitrate lyase (ICL) (Salmonella enterica, UniProt P51066).
T1 sequence (P51066 1-434): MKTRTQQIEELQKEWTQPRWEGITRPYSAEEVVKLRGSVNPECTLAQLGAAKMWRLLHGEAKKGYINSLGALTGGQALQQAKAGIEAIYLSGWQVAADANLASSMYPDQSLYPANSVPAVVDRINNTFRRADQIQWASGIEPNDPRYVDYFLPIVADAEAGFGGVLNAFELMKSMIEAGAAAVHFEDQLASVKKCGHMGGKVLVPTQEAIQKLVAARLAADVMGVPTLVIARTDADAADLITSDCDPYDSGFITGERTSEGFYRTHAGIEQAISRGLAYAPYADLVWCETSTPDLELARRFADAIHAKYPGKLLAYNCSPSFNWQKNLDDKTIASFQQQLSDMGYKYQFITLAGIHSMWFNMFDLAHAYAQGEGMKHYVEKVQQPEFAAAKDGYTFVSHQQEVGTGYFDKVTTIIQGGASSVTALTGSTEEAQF
As to the kind of experiment: enzyme activity assay of purified ICL. It is filed as biochemical.

For `C=C(CC(=O)O)C(=O)O` [ITA, itaconate], the IC50 is ~2600 µM.
